Earlier results as cited in patent publication US20210322342A1, “ENDOXIFEN FOR THE TREATMENT OF BIPOLAR I DISORDER” (Jina Pharmaceuticals, Inc., priority 2020, published 2021).

Tests used:
PKC = conditions: compared to tamoxifen
[1] = for plasma levels of free thyroxin (fT4): use of antipsychotics

Compound | potency in inhibiting the PKC activity (PKC) | haematological adverse effects ([1]; in vivo) | plasma levels of free thyroxin (fT4) [1]
CC/C(=C(\c1ccc(O)cc1)c1ccc(OCCNC)cc1)c1ccccc1.O=C(O)CC(O)(CC(=O)O)C(=O)O [Endoxifen, (Z)—1-(4-Hydroxyphenyl)-1-{4-[2-(monomethylamino)ethoxy]phenyl}—2—pheny 1-1-butene citrate] | four-fold higher potency | – | –
Cc1cc2c(s1)Nc1ccccc1N=C2N1CCN(C)CC1 [olanzapine] | – | causes neutropenia and thrombocytopenia | significantly lower
OCCOCCN1CCN(C2=Nc3ccccc3Sc3ccccc32)CC1 [quetiapine] | – | – | significantly lower
